Results on 8 compounds are retold here after patent publication US20140349955A1, “USE OF FLUORINE-CONTAINING WATER SOLUBLE PLATINUM COMPLEX IN PREPARING DRUGS FOR PREVENTION AND TREATMENT OF CANCERS” (GUDUI BIOPHARMA TECHNOLOGY INC., priority 2011, published 2014).

By IC50 is commonly meant the concentration that gives 50% inhibition.

For series [1] the following is noted: cited from earlier work.
The subject of a further series is L1210 tumor cells. The series can be described thus: Antitumor efficacy in L1210 tumor-bearing CDF1 mice (increase in life span). The series is classed as in vivo. The method, then: In the following test, antitumor efficacy studies were performed using 8-9 weeks old female CDF1 mice, the average weight of the animal is 20-25 grams. L1210 tumor cells (about 10^5 cells per mouse) were inoculated intraperitoneally. The fluorine-containing water-soluble platinum complexes were used to treat the tumor-bearing animals and the efficacy was compared compared with the clinical platinum antitumor drugs. […] Drugs were administered intraperitoneally on day 1 and day 4 after tumor cell transplantation. The number of experimental animals in each group was 6.
The experimental animals were purchased from Vital River Laboratory Animal Technology Co. Ltd., Tumor cells L1210-leukemia cells were purchased from Shanghai An Yan Commercial Trade Co. Ltd.
The increase in life span (ILS) is calculated as follows:
Wherein, St=the weighted median survival time of treated animals; Su=the weighted median survival time of untreated animals

Series [2] deals with DU145. Briefly: MTS cytotoxicity test, DU145. Type of series: cell-based. To be noted: 96 h, read-out: IC50 value in human tumor cells. How it is done: (§1) Containing 10% bovine fetal serum, 1 mM of sodium pyruvate, 2 mM of L-glutamine, 50 U/mL of penicillin, 50 μg/mL of streptomycin
(§2) Human tumor cells: dul45-human prostate cancer; MCF-7-human breast cancer; SK0V3-human ovarian carcinoma, HT-29-human colon cancer; A549-human non-small cell lung cancer (adenocarcinoma), H460-human non-small cell lung cancer (large cell carcinoma), and animal tumor cells: L1210-mice leukemia cells used in the following activity test experiments were all purchased from Shanghai An Yan Commercial Trade Co., Ltd.
(§3) MTS test method was used in cytotoxicity assay. The tumor cells of logarithmic phase were collected, and then the concentration of cell suspension was adjusted, 100 μL of the cell suspension was added to each well, the cells were placed at 1000-10000 cells/well (edge well filled with sterile PBS). Cells were incubated at 37° C. with 5% CO2 to make cell monolayer overspread the bottom of each well (96-well flat-bottomed microplate). 100 μL of different concentrations of the test compounds was added to each well. Each condition was measured in five replicates. The microplate was incubated at 37° C. with 5% CO2 for 96 h and checked with inverted microscope. MTS working reagent: To 2 mL of MTS (2 mg/mL, prepared by DPBS) was added 100 μL of PMS (1 mg/mL, prepared by DPBS). The cell culture medium was discarded after centrifugation, the cell culture plate was carefully washed 2-3 times with PBS. Before detecting the absorbance value (OD), to each sample containing well was added 100 μL of cell culture medium, then 20 μL of MTS working reagent was added. After incubation at 37° C. with 5% CO2 for 2 h, the OD (optical density) value was detected at 490 nm.
(§4) Control group: the conditions are the same as the above without adding the active ingredient of antitumor agents, and the OD value was detected at 490 nm on the end of the experiment.
(§5) The cell inhibiting rate of the drugs to tumor cell growth was calculated according to the following formula:
(§6) 1) Cell viability (%)=OD of treated group/OD of control group×100%
(§7) 2) The cell viabilities under the different drug concentrations were determined, and then plotted against drug concentration. The IC50 value is the corresponding concentration in the obtained curve when the cell viability was 50%.
A general note: Tetrazolium assays rely on reduction of a dye to a coloured formazan, in cell work by metabolically active cells.

Another series concerns SKOV3. The series can be described thus: MTS cytotoxicity test, SKOV3. The series is classed as cell-based. To be noted: 96 h, read-out: IC50 value in human tumor cells. How it is done: as §1, §2, §3, §4, §5, §6, §7
Series [3] concerns A549. The series can be described thus: MTS cytotoxicity test, A549. The series is classed as cell-based. The conditions noted are these: 96 h, read-out: IC50 value in human tumor cells. The method, then: as §1, §2, §3, §4, §5, §6, §7
The test system of series [4] is H460. Briefly: MTS cytotoxicity test, H460. The series is classed as cell-based. To be noted: 96 h, read-out: IC50 value in human tumor cells. The method, then:
as §1, §2, §3, §4, §5, §6, §7

In series [5] the test system is MCF7. Briefly: MTS cytotoxicity test, MCF7. The conditions noted are these: 96 h, read-out: IC50 value in human tumor cells. Type of series: cell-based. The method, then: as §1, §2, §3, §4, §5, §6, §7
Series [6] deals with HT29. Briefly: MTS cytotoxicity test, HT29. The series is classed as cell-based. To be noted: 96 h, read-out: IC50 value in human tumor cells. The method, then:
as §1, §2, §3, §4, §5, §6, §7

Series [7] deals with H460. Briefly: Synergistic cytotoxicity test (MTS), H460. Type of series: cell-based, human. The conditions noted are these: 96 h.
The subject of series [8] is DU145. Briefly: Synergistic cytotoxicity test (MTS), DU145. The series is classed as cell-based, human. The conditions noted are these: 96 h.
For another series, the system named is SK0V3. Briefly: Synergistic cytotoxicity test (MTS), SKOV3. Type of series: cell-based, human. The conditions noted are these: 96 h.
The subject of series [9] is MCF7. Briefly: Synergistic cytotoxicity test (MTS), MCF7. To be noted: 96 h. The series is classed as cell-based, human.
In series [10] the test system is HT29. Briefly: Synergistic cytotoxicity test (MTS), HT29. The series is classed as cell-based, human. The conditions noted are these: 96 h.
Series [11] deals with A549. Briefly: Synergistic cytotoxicity test (MTS), A549. Type of series: cell-based, human. To be noted: 96 h.
[12] abbreviates: 24 mg/Kg i.p. on day 1 and day 4.
Where [13] appears, read: 40 mg/Kg i.p. on day 1 and day 4.
Setting [14] is: 80 mg/Kg i.p. on day 1 and day 4.
Setting [15] is: 50 mg/Kg i.p. on day 1 and day 4.
Where [16] appears, read: 100 mg/Kg i.p. on day 1 and day 4.
Setting [17] is: 200 mg/Kg i.p. on day 1 and day 4.
[18] abbreviates: other chemotherapy drug (at its listed dosage) combined with Complex 5 (dosage: 1 μM).
[19] abbreviates: other chemotherapy drug (at its listed dosage) combined with Complex 6 (dosage: 1 μM).
Where [20] appears, read: other chemotherapy drug (at its listed dosage) combined with Complex 2 (dosage: 1 μM).
Setting [21] is: other chemotherapy drug (at its listed dosage) combined with Complex 3 (dosage: 1 μM).

With `N.N.O=C([O-])C1(C(=O)[O-])CCC1.[Pt+2]` [Carboplatin], the water solubility in series [1] is 17 mg/mL. For the same compound, the entries for the “ILS (%)” value in the series with L1210 tumor cells (setting [12]), in the series with L1210 tumor cells (setting [13]) and in the series with L1210 tumor cells (setting [14]) were 10%, 24% and 55%, respectively. Also, the “Survived Animals on Day 42” value was 0/6 in the series with L1210 tumor cells (setting [12]), 0/6 in the series with L1210 tumor cells (setting [13]) and 1/6 in the series on L1210 tumor cells (setting [14]). Moreover, the “Weight Changes (g)” value in the series on L1210 tumor cells (24 mg/Kg i.p. on day 1 and day 4, weight changes from the first day to the seventh day) is “+0 g”. Besides, the “Weight Changes” value is -0.3 g with L1210 tumor cells (40 mg/Kg i.p. on day 1 and day 4, weight changes from the first day to the seventh day); -1.2 g with L1210 tumor cells (80 mg/Kg i.p. on day 1 and day 4, weight changes from the first day to the seventh day).

Regarding `O=C1[O][Pt]2([NH][C@@H]3CCCC[C@H]3[NH]2)[O]C(=O)C1(F)CCOC1O[C@H](CO)[C@@H](O)[C@H](O)[C@H]1O` (stereo partly drawn) [Complex 2, cis-[trans-(1R, 2R)-diaminocyclohexane] Pt (II) (1—O—D-glucoside-propane-3-fluoro-3,3-dicarb oxylate)], the IC50 in the series on DU145 [2] stood at 4.85 µM; with SKOV3, 10 µM; in the series with A549 [3], 0.675 µM; in the series with H460 [4] it was 9.87 µM; in the series on MCF7 [5], 0.656 µM; with HT29 [6], 1.55 µM.

Take `O=C1[O][Pt]2([NH][C@@H]3CCCC[C@H]3[NH]2)[O]C(=O)C1(F)CCCOC1O[C@H](CO)[C@@H](O)[C@H](O)[C@H]1O` (stereo partly drawn) [Complex 3]: the IC50 in the series with DU145 [2] came to 6.6 µM; in the series with SKOV3, 10.1 µM; in the series on A549 [3], 0.855 µM; in the series with H460 [4], 10.1 µM; in the series with MCF7 [5], 0.923 µM; in the series with HT29 [6], 2.01 µM.

Turning to `O=C1[O][Pt]2([NH]C3CCCCC3[NH]2)[O]C(=O)C1(F)CCOC1OC(CO)C(O)C(O)C1O` (stereo not drawn) [Complex 5], the IC50 stood at 2.6 µM in the series with DU145 [2]; 2.22 µM with SKOV3; 0.653 µM in the series on A549 [3]; 10.2 µM in the series with H460 [4]; 0.411 µM in the series with MCF7 [5]; 2.16 µM in the series on HT29 [6].

`O=C1[O][Pt]2([NH]C3CCCCC3[NH]2)[O]C(=O)C1(F)CCCOC1OC(CO)C(O)C(O)C1O` (stereo not drawn) [Complex 6]: the IC50 with DU145 [2] amounted to 9.96 µM; in the series with SKOV3, 22.2 µM; in the series with A549 [3] it was 21.8 µM; with H460 [4], 22.4 µM; in the series with MCF7 [5] it was 2.04 µM; in the series on HT29 [6], 2.3 µM.

Turning to `O=C1[O][Pt]2([NH]C3CCCCC3[NH]2)[O]C(=O)C1(F)CCOC1OC(CO)C(O)C(O)C1O` (stereo not drawn) [Complex 8], the IC50 with DU145 [2] turned out to be 5.11 µM; with SKOV3, 49.4 µM; in the series with A549 [3], 5.12 µM; in the series with H460 [4], 10 µM; in the series with MCF7 [5], 5.1 µM; in the series with HT29 [6], 1.07 µM.

Take `O=C1[O][Pt]2([NH]C3CCCCC3[NH]2)[O]C(=O)C1(F)CCCOC1OC(CO)C(O)C(O)C1O` (stereo not drawn) [Complex 9]: the IC50 in the series with DU145 [2] stood at 7.04 µM; in the series with SKOV3 it was 21.3 µM; in the series on A549 [3] it was 10.2 µM; in the series with H460 [4] it was 21.4 µM; in the series on MCF7 [5], 6.71 µM; in the series on HT29 [6], 1.2 µM. In addition, the “ILS (%)” value in the series on L1210 tumor cells (setting [15]), in the series on L1210 tumor cells (setting [16]) and with L1210 tumor cells (setting [17]) was greater than 400% throughout. Further, the “Survived Animals on Day 42” value with L1210 tumor cells (setting [15]), with L1210 tumor cells (setting [16]) and with L1210 tumor cells (setting [17]) was 6/6 each time. For the same compound, the “Weight Changes (g)” value in the series with L1210 tumor cells (50 mg/Kg i.p. on day 1 and day 4, weight changes from the first day to the seventh day) was “+1.5 g”; in the series with L1210 tumor cells (100 mg/Kg i.p. on day 1 and day 4, weight changes from the first day to the seventh day), “+0.1 g”. Besides, the “Weight Changes” value in the series with L1210 tumor cells (200 mg/Kg i.p. on day 1 and day 4, weight changes from the first day to the seventh day) is -0.5 g.

As to `N.N.[Cl][Pt+2][Cl]` [Transplatin], the “the effect of drug combination (Combination Effect)” value (shortened to “the effect of drug combination”) is reported as “⊚ (⊚ represents the effect of drug combination > 300%)” in the series on H460 [7] (setting [18]); “⊚ (⊚ represents the effect of drug combination > 300%)” with H460 [7] (setting [19]); “○ (○ represents: 100% < the effect of drug combination < 300%)” with DU145 [8] (setting [20]); “○ (○ represents: 100% < the effect of drug combination < 300%)” in the series on DU145 [8] (setting [21]); “○ (○ represents: 100% < the effect of drug combination < 300%)” in the series with DU145 [8] (setting [18]); “○ (○ represents: 100% < the effect of drug combination < 300%)” with DU145 [8] (setting [19]). For the same compound, the “the effect of drug combination” value in the series on SK0V3 (other chemotherapy drug (at its listed dosage) combined with Complex 2 (dosage: 1 μM), SLOV3) is reported as “○ (○ represents: 100% < the effect of drug combination < 300%)”; in the series with SK0V3 (other chemotherapy drug (at its listed dosage) combined with Complex 3 (dosage: 1 μM), SlOV3), “○ (○ represents: 100% < the effect of drug combination < 300%)”; in the series with SK0V3 (other chemotherapy drug (at its listed dosage) combined with Complex 5 (dosage: 1 μM), SLOV3), “○ (○ represents: 100% < the effect of drug combination < 300%)”; in the series with SK0V3 (other chemotherapy drug (at its listed dosage) combined with Complex 6 (dosage: 1 μM), SLOV3) it was “○ (○ represents: 100% < the effect of drug combination < 300%)”; in the series with MCF7 [9] (setting [20]), “⊚ (⊚ represents the effect of drug combination > 300%)”; in the series with MCF7 [9] (setting [21]), “⊚ (⊚ represents the effect of drug combination > 300%)”. Besides, the “the effect of drug combination” value in the series with MCF7 [9] (setting [18]), in the series with MCF7 [9] (setting [19]), with HT29 [10] (setting [20]), with HT29 [10] (setting [21]), with HT29 [10] (setting [18]) and in the series with HT29 [10] (setting [19]) was “⊚ (⊚ represents the effect of drug combination > 300%)” each time. Further, the “the effect of drug combination” value with A549 [11] (setting [20]) and with A549 [11] (setting [21]) was “⊚ (⊚ represents the effect of drug combination > 300%)” in each case.
